According to patent publication US20260297085A1, “1 H-PYRROLO[2,3-B]PYRIDIN-4-YL]-2-OXOPYRROLIDINE-3-CARBONITRILE DERIVATIVES AS TYROSINE KINASE 2 (TYK2) INHIBITORS FOR THE TREATMENT OF INFLAMMATORY DISEASES” (BIOGEN MA INC., priority 2023, published 2026):
pIC50: −log10 of the molar value. Counter-ions that a name gives are not always drawn.

Columns and labels:
[1] = biological target: T1, human JAK1 kinase domain (JH1) (Homo sapiens, UniProt P23458); test: JH1 biochemical assay for JAK1 (ADP-Glo kinase assay, recombinant JH1 catalytic domain, JAK3-342 peptide, 35 μM ATP)
T1 construct: recombinantly generated catalytic kinase (also known as JH1) domain of human JAK1, JAK2, JAK3 and TYK2
T1 sequence (P23458 875-1153 limits assumed): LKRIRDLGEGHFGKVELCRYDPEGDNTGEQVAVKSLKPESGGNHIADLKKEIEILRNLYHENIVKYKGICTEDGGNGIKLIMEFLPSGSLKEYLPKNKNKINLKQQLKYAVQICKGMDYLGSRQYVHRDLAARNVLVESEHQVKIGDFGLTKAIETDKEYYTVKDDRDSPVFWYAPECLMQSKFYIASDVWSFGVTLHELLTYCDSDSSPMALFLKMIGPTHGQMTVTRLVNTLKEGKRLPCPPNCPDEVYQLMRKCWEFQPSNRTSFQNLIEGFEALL
Method in brief: (§1)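 Compounds were titrated in 11 points of 3-fold dilution starting at 10 μM or 1 μM. Enzyme (JAK1 4 nM, JAK2 0.2 nM, JAK3 0.3 nM, TYK2 2 nM) and 50 μM peptide reacted for 100 minutes, followed by ADP-to-luminescence detection; IC50 by 4-parameter fit.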

[2] = biological target: Tyk2 kinase activity on STAT4 in NK92 cells (Homo sapiens, UniProt P29597); test: pSTAT4 cell assay (MSD; NK92 cells, 30 ng/mL IL2 stimulation); format: cell-based; conditions: 30 ng/mL IL2, 15 minutes
Tyk2 kinase activity on STAT4 in NK92 cells, sequence (P29597 whole entry): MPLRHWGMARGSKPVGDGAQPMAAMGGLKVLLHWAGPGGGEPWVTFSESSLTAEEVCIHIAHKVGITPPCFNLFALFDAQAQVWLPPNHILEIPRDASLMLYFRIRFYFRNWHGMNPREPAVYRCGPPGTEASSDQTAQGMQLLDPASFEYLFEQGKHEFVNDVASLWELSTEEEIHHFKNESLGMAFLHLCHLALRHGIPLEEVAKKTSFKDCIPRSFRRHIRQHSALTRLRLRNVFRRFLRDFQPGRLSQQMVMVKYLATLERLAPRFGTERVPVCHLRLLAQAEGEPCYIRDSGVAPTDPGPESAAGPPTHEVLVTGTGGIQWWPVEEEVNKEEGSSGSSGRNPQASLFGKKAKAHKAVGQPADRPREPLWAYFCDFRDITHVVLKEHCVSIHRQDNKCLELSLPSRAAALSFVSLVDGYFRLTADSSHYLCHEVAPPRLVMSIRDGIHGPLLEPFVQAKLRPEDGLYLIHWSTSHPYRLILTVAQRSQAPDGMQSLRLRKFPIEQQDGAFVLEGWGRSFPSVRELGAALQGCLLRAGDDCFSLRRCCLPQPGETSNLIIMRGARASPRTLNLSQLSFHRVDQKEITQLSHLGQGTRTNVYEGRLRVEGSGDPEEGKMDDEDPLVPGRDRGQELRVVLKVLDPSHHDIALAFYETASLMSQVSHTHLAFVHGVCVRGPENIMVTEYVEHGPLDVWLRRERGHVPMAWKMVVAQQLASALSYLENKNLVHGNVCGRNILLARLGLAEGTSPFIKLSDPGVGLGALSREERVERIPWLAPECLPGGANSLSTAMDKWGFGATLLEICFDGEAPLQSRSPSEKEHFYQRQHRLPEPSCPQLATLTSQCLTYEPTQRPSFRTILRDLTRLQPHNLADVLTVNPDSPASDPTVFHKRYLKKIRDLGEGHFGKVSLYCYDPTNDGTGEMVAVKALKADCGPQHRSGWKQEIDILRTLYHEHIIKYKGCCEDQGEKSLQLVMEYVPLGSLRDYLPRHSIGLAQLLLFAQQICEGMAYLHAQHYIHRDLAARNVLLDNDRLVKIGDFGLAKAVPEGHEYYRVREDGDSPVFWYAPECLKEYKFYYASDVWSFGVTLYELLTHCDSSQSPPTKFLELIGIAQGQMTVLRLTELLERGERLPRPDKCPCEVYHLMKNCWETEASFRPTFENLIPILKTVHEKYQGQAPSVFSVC
Method in brief: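 Read-out: phospho-STAT in NK92 lysates, MSD format, anti-STAT4 antibodies. Cells were serum-starved, given compound for 1 hr (10 μM top, four-fold, 10 points) and IL2-stimulated (30 ng/mL, 15 min). Normalized percent activity vs log concentration, 4-parameter logistic fit gave IC50.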

[3] = biological target: T2, human JAK3 kinase domain (JH1) (Homo sapiens, UniProt P52333); test: JH1 biochemical assay for JAK3 (ADP-Glo kinase assay, recombinant JH1 catalytic domain, JAK3-974 peptide, 4 μM ATP)
T2 construct: recombinantly generated catalytic kinase (also known as JH1) domain of human JAK1, JAK2, JAK3 and TYK2
T2 sequence (P52333 822-1111 limits assumed): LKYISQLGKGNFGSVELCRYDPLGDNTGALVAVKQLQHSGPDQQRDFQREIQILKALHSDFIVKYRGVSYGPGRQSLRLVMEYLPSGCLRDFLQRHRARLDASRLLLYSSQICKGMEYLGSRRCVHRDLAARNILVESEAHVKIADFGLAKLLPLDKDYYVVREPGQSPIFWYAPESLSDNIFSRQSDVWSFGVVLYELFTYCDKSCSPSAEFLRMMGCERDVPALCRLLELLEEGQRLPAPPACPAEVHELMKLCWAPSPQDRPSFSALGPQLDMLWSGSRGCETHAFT
Method in brief: as §1

[4] = biological target: JAK2 kinase activity on STAT5 in TF1 cells (Homo sapiens, UniProt O60674); test: pSTAT5 cell assay (MSD; TF1 cells, 30 ng/mL IL-3 stimulation); format: cell-based; conditions: 30 ng/mL IL-3, 15 minutes
JAK2 kinase activity on STAT5 in TF1 cells, sequence (O60674 whole entry): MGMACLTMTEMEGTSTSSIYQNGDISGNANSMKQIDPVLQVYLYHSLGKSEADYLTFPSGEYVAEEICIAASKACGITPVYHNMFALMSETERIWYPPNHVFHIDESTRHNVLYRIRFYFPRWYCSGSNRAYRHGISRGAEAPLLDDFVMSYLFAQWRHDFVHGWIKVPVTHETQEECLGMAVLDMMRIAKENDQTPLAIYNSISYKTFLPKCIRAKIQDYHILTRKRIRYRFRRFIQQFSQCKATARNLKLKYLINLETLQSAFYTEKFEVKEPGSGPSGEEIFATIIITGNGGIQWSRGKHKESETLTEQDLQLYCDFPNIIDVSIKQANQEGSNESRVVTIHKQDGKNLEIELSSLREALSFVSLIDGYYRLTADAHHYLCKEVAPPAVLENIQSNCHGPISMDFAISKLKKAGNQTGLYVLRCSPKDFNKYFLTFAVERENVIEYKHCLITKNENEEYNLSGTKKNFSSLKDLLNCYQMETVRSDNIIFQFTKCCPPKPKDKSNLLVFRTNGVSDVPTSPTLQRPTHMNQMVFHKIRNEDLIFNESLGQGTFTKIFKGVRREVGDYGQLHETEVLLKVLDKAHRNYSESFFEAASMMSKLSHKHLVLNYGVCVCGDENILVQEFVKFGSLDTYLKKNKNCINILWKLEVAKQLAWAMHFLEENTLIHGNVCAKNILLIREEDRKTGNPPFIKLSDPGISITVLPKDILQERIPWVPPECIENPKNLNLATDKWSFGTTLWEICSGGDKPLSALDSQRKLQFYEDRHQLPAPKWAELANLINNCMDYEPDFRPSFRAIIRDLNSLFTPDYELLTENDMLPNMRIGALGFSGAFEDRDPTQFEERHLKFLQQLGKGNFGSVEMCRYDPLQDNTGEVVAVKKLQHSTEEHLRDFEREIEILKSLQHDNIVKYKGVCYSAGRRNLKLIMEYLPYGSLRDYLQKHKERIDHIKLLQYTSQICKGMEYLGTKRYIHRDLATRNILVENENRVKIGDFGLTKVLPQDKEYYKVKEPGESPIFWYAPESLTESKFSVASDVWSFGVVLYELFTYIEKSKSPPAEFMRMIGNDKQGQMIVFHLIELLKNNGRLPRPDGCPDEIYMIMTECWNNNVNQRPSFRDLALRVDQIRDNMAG
Method in brief: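 IC50 from a 4-parameter logistic fit of normalized pSTAT5 signal, measured by MSD in lysates of TF1 cells. Cells were serum-starved, exposed to compound for 1 h (top concentration 10 μM, four-fold, 10 points), then given IL-3 at 30 ng/mL for 15 min.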

[5] = biological target: JAK1 kinase activity on STAT3 in TF1 cells (Homo sapiens, UniProt P23458); test: pSTAT3 cell assay (MSD; TF1 cells, 30 ng/mL IL-6 stimulation); format: cell-based; conditions: 30 ng/mL IL-6, 15 minutes
JAK1 kinase activity on STAT3 in TF1 cells, sequence (P23458 whole entry): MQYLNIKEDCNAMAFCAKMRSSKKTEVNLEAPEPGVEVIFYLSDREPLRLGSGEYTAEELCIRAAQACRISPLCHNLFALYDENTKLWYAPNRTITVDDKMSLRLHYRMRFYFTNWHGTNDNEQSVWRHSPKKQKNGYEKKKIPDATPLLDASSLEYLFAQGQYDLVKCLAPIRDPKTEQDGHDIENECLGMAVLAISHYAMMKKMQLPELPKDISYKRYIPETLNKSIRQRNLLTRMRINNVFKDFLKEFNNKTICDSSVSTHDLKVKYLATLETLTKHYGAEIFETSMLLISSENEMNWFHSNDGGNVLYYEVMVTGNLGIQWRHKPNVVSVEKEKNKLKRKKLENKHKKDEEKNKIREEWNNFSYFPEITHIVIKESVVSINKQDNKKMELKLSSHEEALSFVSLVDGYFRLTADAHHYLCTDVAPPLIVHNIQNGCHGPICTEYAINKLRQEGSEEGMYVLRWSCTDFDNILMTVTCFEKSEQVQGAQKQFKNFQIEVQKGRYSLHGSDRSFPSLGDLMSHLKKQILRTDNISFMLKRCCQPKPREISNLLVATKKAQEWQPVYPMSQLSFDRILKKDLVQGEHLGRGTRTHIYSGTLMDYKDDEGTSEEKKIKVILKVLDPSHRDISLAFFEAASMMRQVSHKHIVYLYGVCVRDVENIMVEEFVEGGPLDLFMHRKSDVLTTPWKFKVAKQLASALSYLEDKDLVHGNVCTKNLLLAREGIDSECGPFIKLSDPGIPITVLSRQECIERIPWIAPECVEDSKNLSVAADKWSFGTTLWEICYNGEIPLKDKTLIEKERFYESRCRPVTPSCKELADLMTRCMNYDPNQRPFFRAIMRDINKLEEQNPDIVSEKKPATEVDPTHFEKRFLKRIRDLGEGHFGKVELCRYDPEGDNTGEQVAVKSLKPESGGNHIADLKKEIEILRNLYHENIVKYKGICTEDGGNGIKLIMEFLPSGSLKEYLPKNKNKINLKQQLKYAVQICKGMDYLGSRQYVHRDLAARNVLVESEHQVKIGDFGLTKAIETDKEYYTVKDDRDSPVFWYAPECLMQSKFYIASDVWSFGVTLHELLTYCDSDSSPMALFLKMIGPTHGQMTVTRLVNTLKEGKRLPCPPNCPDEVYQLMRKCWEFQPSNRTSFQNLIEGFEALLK
Method in brief: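 IC50 values reflect 4-parameter logistic fits of normalized pSTAT3 signal, measured by MSD in lysed TF1 cells. Cells were serum-starved and treated with compound for 1 h (top concentration 10 μM) before a 15 min IL-6 challenge.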

[6] = biological target: T3, human JAK2 kinase domain (JH1) (Homo sapiens, UniProt O60674); test: JH1 biochemical assay for JAK2 (ADP-Glo kinase assay, recombinant JH1 catalytic domain, JAK3-974 peptide, 15 μM ATP)
T3 construct: recombinantly generated catalytic kinase (also known as JH1) domain of human JAK1, JAK2, JAK3 and TYK2
T3 sequence (O60674 849-1124 limits assumed): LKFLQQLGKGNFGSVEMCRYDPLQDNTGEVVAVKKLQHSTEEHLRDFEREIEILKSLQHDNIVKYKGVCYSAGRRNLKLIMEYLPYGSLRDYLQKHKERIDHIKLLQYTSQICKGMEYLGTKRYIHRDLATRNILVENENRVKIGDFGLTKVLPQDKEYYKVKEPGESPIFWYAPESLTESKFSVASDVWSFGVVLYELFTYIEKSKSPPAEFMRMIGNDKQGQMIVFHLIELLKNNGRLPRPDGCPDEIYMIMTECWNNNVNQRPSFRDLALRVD
Method in brief: as §1

[7] = biological target: T4, human TYK2 kinase domain (JH1) (Homo sapiens, UniProt P29597); test: JH1 biochemical assay for TYK2 (ADP-Glo kinase assay, recombinant JH1 catalytic domain, JAK3-974 peptide, 10 μM ATP)
T4 construct: recombinantly generated catalytic kinase (also known as JH1) domain of human JAK1, JAK2, JAK3 and TYK2
T4 sequence (P29597 897-1176 limits assumed): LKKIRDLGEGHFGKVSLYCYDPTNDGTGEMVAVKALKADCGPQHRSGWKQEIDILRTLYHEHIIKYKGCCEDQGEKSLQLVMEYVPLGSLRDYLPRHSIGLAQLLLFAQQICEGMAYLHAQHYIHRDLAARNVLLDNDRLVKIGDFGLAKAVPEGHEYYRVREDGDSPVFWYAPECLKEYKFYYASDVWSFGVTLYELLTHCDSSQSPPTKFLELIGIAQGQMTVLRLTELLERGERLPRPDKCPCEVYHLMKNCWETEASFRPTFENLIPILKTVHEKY
Method in brief: as §1

| SMILES | pIC50 ([1]; JH1 kinase domain, ADP-Glo) | pIC50 [2] | pIC50 ([3]; JH1 kinase domain, ADP-Glo) | pIC50 [4] | pIC50 [5] | pIC50 ([6]; JH1 kinase domain, ADP-Glo) | pIC50 ([7]; JH1 kinase domain, ADP-Glo) | pIC50 ([1]; JAK1 JH1, ADP-Glo) | pIC50 ([3]; JAK3 JH1, ADP-Glo) | pIC50 ([6]; JAK2 JH1, ADP-Glo) | pIC50 ([7]; TYK2 JH1, ADP-Glo) |
| --- | --- | --- | --- | --- | --- | --- | --- | --- | --- | --- | --- |
| C[C@@H]1CN(c2ccnn3cc(-c4ccc(F)nc4)cc23)C(=O)[C@]1(C#N)C1CC1 [Example 81, (3R,4S)-3-cyclopropyl-1-(6-(6-fluoropyridin-3-yl)pyrrolo[1,2-b]pyridazin-4-yl)-4-methyl-2-oxopyrrolidine-3-carbonitrile] | 6.00 to 7.00 | < 7.00 | 6.00 to 7.00 | < 5.00 | 5.00 to 5.30 | 6.00 to 7.00 | 7.70 to 8.30 | – | – | – | – |
| C[C@@H]1CN(c2ccnn3cc(-c4cnn(C(F)F)c4)cc23)C(=O)[C@]1(C#N)C1CC1 [Example 35, (3R,4S)-3-cyclopropyl-1-(6-(1-(difluoromethyl)-1H-pyrazol-4-yl)pyrrolo[1,2-b]pyridazin-4-yl)-4-methyl-2-oxopyrrolidine-3-carbonitrile] | 6.00 to 7.00 | 7.30 to 7.70 | 6.00 to 7.00 | 5.00 to 5.30 | 5.30 to 6.00 | 6.00 to 7.00 | > 8.30 | – | – | – | – |
| [2H]C([2H])([2H])n1cc(-c2cn3ncc(F)c3c(N3C[C@@H](C)[C@@](C#N)(C4CC4)C3=O)n2)cn1 [Example 211, (3R,4S)-3-cyclopropyl-1-(3-fluoro-6-(1-(methyl-d3)-1H-pyrazol-4-yl)pyrazolo[1,5-a]pyrazin-4-yl)-4-methyl-2-oxopyrrolidine-3-carbonitrile] | > 7.00 | 7.00 to 7.30 | > 7.00 | 5.30 to 6.00 | 5.30 to 6.00 | 6.00 to 7.00 | > 8.30 | – | – | – | – |
| C[C@@H]1CN(c2nc(-c3cnn(C(F)F)c3)cn3nccc23)C(=O)[C@]1(C#N)C1CC1 [Example 185, (3R,4S)-3-cyclopropyl-1-(6-(1-(difluoromethyl)-1H-pyrazol-4-yl)pyrazolo[1,5-a]pyrazin-4-yl)-4-methyl-2-oxopyrrolidine-3-carbonitrile] | > 7.00 | 7.30 to 7.70 | > 7.00 | 6.00 to 7.00 | 6.00 to 7.00 | > 7.00 | > 8.30 | – | – | – | – |
| C[C@@H]1CN(c2nc(-c3cnn([C@H]4C[C@@](C)(O)C4)c3)cn3ncc(F)c23)C(=O)[C@]1(C#N)C1CC1 [Example 301, (3R,4S)-3-cyclopropyl-1-(3-fluoro-6-(1-((1s,3 S)-3-hydroxy-3-methylcyclobutyl)-1H-pyrazol-4-yl)pyrazolo[1,5-a]pyrazin-4-yl)-4-methyl-2-oxopyrrolidine-3-carbonitrile] | – | 7.00 to 7.30 | – | 6.00 to 7.00 | 6.00 to 7.00 | – | – | > 7.00 | > 7.00 | > 7.00 | > 8.30 |
| C[C@@H]1CN(c2nc(-c3cnn(C)c3)cc3ncsc23)C(=O)[C@]1(C#N)C1CC1 [Example 284, (3R,4S)-3-cyclopropyl-4-methyl-1-(6-(1-methyl-1H-pyrazol-4-yl)thiazolo[5,4-c]pyridin-4-yl)-2-oxopyrrolidine-3-carbonitrile] | – | 7.70 to 8.30 | – | > 7.00 | > 7.00 | – | – | > 7.00 | > 7.00 | > 7.00 | > 8.30 |
| Cc1ccc(-c2cc3c(N4C[C@@H](C)[C@@](C#N)(C5CC5)C4=O)ccnn3c2)cn1 [Example 67, (3R,4S)-3-cyclopropyl-4-methyl-1-(6-(6-methylpyridin-3-yl)pyrrolo[1,2-b]pyridazin-4-yl)-2-oxopyrrolidine-3-carbonitrile] | 6.00 to 7.00 | < 7.00 | 6.00 to 7.00 | 5.00 to 5.30 | 5.30 to 6.00 | 6.00 to 7.00 | 7.70 to 8.30 | – | – | – | – |
| C[C@@H]1CN(c2cc(-c3cnn(C)c3)cn3nccc23)C(=O)[C@]1(C#N)C1CC1 [Example 271, (3R,4S)-3-cyclopropyl-4-methyl-1-(6-(1-methyl-1H-pyrazol-4-yl)pyrazolo[1,5-a]pyridin-4-yl)-2-oxopyrrolidine-3-carbonitrile] | – | < 7.00 | – | < 5.00 | < 5.00 | – | – | 6.00 to 7.00 | 6.00 to 7.00 | 5.30 to 6.00 | 7.70 to 8.30 |
| CC(C)n1cc(-n2nc(N3C[C@@H](C)[C@@](C#N)(C4CC4)C3=O)c3ccncc32)cn1 [Example 280, (3R,4S)-3-cyclopropyl-1-(1-(1-isopropyl-1H-pyrazol-4-yl)-1H-pyrazolo[3,4-c]pyridin-3-yl)-4-methyl-2-oxopyrrolidine-3-carbonitrile] | – | < 7.00 | – | < 5.00 | 5.30 to 6.00 | – | – | 6.00 to 7.00 | 6.00 to 7.00 | 6.00 to 7.00 | > 8.30 |
| C[C@@H]1CN(c2nc(-c3cnn(C(F)F)c3)cc3ncsc23)C(=O)[C@]1(C#N)C1CC1 [Example 353, (3R,4S)-3-cyclopropyl-1-(6-(1-(difluoromethyl)-1H-pyrazol-4-yl)thiazolo[5,4-c]pyridin-4-yl)-4-methyl-2-oxopyrrolidine-3-carbonitrile] | – | 7.30 to 7.70 | – | 6.00 to 7.00 | > 7.00 | – | – | > 7.00 | > 7.00 | > 7.00 | > 8.30 |
| C[C@@H]1CN(c2nc(-c3cnn(C4CC5(COC5)C4)c3)cn3nccc23)C(=O)[C@]1(C#N)C1CC1 [Example 289, (3R,4S)-1-(6-(1-(2-oxaspiro[3.3]heptan-6-yl)-1H-pyrazol-4-yl)pyrazolo[1,5-a]pyrazin-4-yl)-3-cyclopropyl-4-methyl-2-oxopyrrolidine-3-carbonitrile] | – | 7.70 to 8.30 | – | > 7.00 | > 7.00 | – | – | > 7.00 | > 7.00 | > 7.00 | > 8.30 |
| C[C@@H]1CN(c2ccnn3cc(-c4cn5c(n4)CCC5)cc23)C(=O)[C@]1(C#N)C1CC1 [Example 106, (3R,4S)-3-cyclopropyl-1-(6-(6,7-dihydro-5H-pyrrolo[1,2-a]imidazol-2-yl)pyrrolo[1,2-b]pyridazin-4-yl)-4-methyl-2-oxopyrrolidine-3-carbonitrile trifluoroacetate] | 6.00 to 7.00 | < 7.00 | 6.00 to 7.00 | < 5.00 | < 5.00 | 6.00 to 7.00 | > 8.30 | – | – | – | – |
| Cc1nn(C)cc1-c1cn2nccc2c(N2C[C@@H](C)[C@@](C#N)(C3CC3)C2=O)n1 [Example 208, (3R,4S)-3-cyclopropyl-1-(6-(1,3-dimethyl-1H-pyrazol-4-yl)pyrazolo[1,5-a]pyrazin-4-yl)-4-methyl-2-oxopyrrolidine-3-carbonitrile] | > 7.00 | 7.00 to 7.30 | > 7.00 | 5.30 to 6.00 | 5.30 to 6.00 | > 7.00 | > 8.30 | – | – | – | – |
